*1 amine or outer side, *2 acyl side, *3 side chain or, on linkers, in order; H or OH if unused. Where a SMILES comes first, the peptide text is derived from it. Side-chain parts run from the residue outwards. [ ]: non-standard residue; d: D form. The star is where a group is joined. C16 diacid = O=C(O)CCCCCCCCCCCCCCC(=O)*; γGlu = O=C(O)[C@H](CCC(=O)[*:2])N[*:1]; NMeI = CC[C@H](C)[C@H](NC)C(=O)O; Api = NC1(C(=O)O)CCNCC1; Abu = CC[C@H](N)C(=O)O; Dap = NC[C@H](N)C(=O)O; Aib = CC(C)(N)C(=O)O
Legend:
[1] = target: T1, CFR1R receptor (Homo sapiens, UniProt P34998); test: Activity at anti-target CFR1R receptor, cAMP assay in CRF1R-overexpression CHO-K1 cells; assay type: cell-based; settings: 100% = Sauvagine at 100 nM; for EC50: cAMP
T1 construct: host or cells: CHO-K1 (clone 2)
T1 sequence (P34998 24-415): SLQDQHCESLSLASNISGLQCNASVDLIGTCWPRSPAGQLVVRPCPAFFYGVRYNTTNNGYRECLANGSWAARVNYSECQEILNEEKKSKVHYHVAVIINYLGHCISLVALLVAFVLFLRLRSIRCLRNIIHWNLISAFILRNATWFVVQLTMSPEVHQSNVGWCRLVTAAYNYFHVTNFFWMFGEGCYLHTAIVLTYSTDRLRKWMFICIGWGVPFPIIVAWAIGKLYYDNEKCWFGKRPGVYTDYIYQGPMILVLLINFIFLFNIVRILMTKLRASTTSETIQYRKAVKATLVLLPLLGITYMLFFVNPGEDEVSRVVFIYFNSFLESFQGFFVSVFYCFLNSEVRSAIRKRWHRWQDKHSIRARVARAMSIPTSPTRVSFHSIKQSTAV
How it was run: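 Uses frozen stocks of CHO-K1 clone 2 cells overexpressing human CRF1R, plated at 4000 cells/well final, with cAMP measured by the same protocol as the TeloHAEC line. Full-activation control: 100 nM Sauvagine.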

[2] = target: T2, human CRF2a receptor (Homo sapiens, UniProt Q13324); test: Activity at human CRF2a receptor, cAMP functional assay in TeloHEAC cells; assay type: cell-based; settings: TeloHEAC cells stably expressing human CRF2a receptor, relative to urocortin 2 (100 nM = 100%)
T2 construct: expressed in transfected cells; host or cells: TeloHEAC cells
T2 sequence (Q13324 1-411): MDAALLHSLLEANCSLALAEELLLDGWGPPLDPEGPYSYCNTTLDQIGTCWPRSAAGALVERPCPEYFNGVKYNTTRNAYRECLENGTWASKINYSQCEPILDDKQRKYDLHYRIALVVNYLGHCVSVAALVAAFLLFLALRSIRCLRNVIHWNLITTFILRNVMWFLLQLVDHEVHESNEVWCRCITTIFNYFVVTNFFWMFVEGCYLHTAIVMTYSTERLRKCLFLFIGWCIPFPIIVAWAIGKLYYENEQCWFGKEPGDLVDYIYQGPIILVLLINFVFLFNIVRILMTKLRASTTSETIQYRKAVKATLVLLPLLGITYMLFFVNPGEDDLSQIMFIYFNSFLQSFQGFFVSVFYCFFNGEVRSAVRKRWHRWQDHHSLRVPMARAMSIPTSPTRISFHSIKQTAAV
How it was run: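 TeloHEAC cells stably expressing human CRF2a (10000 cells/well) were treated with 16-point 1:2 compound dilutions in HBSS/20 mM HEPES with IBMX for 30 min at 37° C. cAMP was read by HTRF (665/620 nm ratio). EC50 was the concentration giving 50% activation, with 100 nM urocortin 2 set as 100%.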

Emax (% I) [1] [% I]	EC50 [1] [nM]	EC50 [2] [nM]	Compound
3	> 250	0.09	CC[C@H](NC(=O)[C@H](CC(N)=O)NC(=O)[C@@H](NC(=O)[C@H](CCC(=O)O)NC(=O)[C@H](C)NC(=O)[C@H](CCC(N)=O)NC(=O)[C@H](CCC(=O)O)NC(=O)[C@H](CCCNC(=N)N)NC(=O)[C@H](CCC(N)=O)NC(=O)[C@H](CCCCN)NC(=O)[C@H](CCCCN)NC(=O)[C@H](CCC(N)=O)NC(=O)[C@H](CCCCN)NC(=O)[C@H](CCC(=O)O)NC(=O)[C@H](CCC(N)=O)NC(=O)[C@H](CCC(=O)O)NC(=O)[C@H](CC(C)C)NC(=O)[C@H](CC(C)C)NC(=O)[C@@H](NC(=O)[C@H](CCCCN)NC(=O)[C@H](CCCCNC(=O)CC[C@H](NC(=O)CCCCCCCCCCCCCCC(=O)O)C(=O)O)NC(=O)[C@H](CC(C)C)NC(=O)[C@H](CCCCN)NC(=O)[C@@H](NC(=O)[C@@H]1CCCN1C(=O)[C@H](NC(=O)[C@H](CC(=O)O)NC(=O)[C@H](CC(C)C)NC(=O)[C@H](CO)NC(=O)[C@H](CC(C)C)NC(=O)[C@@H](NC(=O)[C@@H](NC)[C@@H](C)CC)C(C)C)C(C)C)[C@@H](C)CC)[C@@H](C)CC)[C@@H](C)O)C(=O)N[C@@H](CCC(N)=O)C(=O)N[C@H](C(=O)N[C@@H](CC(C)C)C(=O)N[C@@H](C)C(=O)N[C@@H](CCC(N)=O)C(=O)N[C@H](C(N)=O)C(C)C)[C@@H](C)CC [compound 69] (H-[NMeI]VLSLD[dV]PIKLK([γGlu-C16 diacid])KILLEQEKQKKQREQAETN[Abu]QILAQV-NH2)
0	> 250	0.17	CC[C@H](C)[C@H](NC)C(=O)N[C@H](C(=O)N[C@@H](CC(C)C)C(=O)N[C@@H](CO)C(=O)N[C@@H](CC(C)C)C(=O)N[C@@H](CC(=O)O)C(=O)N[C@@H](C(=O)N1CCC[C@H]1C(=O)N[C@H](C(=O)N[C@@H](CCCCN)C(=O)N[C@@H](CC(C)C)C(=O)N[C@@H](CCCCNC(=O)CC[C@H](NC(=O)CCCCCCCCCCCCCCC(=O)O)C(=O)O)C(=O)N[C@@H](CCCCN)C(=O)N[C@H](C(=O)N[C@@H](CC(C)C)C(=O)N[C@@H](CC(C)C)C(=O)N[C@@H](CCC(=O)O)C(=O)N[C@@H](CCC(N)=O)C(=O)N[C@@H](CCC(=O)O)C(=O)N[C@@H](CCCCN)C(=O)N[C@@H](CCC(N)=O)C(=O)N[C@@H](CCCCN)C(=O)N[C@@H](CCCCN)C(=O)N[C@@H](CCC(N)=O)C(=O)N[C@@H](CCCNC(=N)N)C(=O)N[C@@H](CCC(=O)O)C(=O)N[C@@H](CCC(N)=O)C(=O)N[C@@H](C)C(=O)N[C@@H](CCC(=O)O)C(=O)N[C@H](C(=O)N[C@@H](CC(N)=O)C(=O)N[C@@H](CN)C(=O)N[C@@H](CCC(N)=O)C(=O)N[C@H](C(=O)N[C@@H](CC(C)C)C(=O)N[C@@H](C)C(=O)N[C@@H](CCC(N)=O)C(=O)N[C@H](C(N)=O)C(C)C)[C@@H](C)CC)[C@@H](C)O)[C@@H](C)CC)[C@@H](C)CC)C(C)C)C(C)C [compound 70] (H-[NMeI]VLSLD[dV]PIKLK([γGlu-C16 diacid])KILLEQEKQKKQREQAETN[Dap]QILAQV-NH2)
−4	> 250	0.21	CC[C@H](C)[C@H](NC)C(=O)N[C@H](C(=O)N[C@@H](CC(C)C)C(=O)N[C@@H](CO)C(=O)N[C@@H](CC(C)C)C(=O)N[C@@H](CC(=O)O)C(=O)N[C@@H](C(=O)N1CCC[C@H]1C(=O)N[C@H](C(=O)N[C@@H](CCCCN)C(=O)N[C@@H](CC(C)C)C(=O)N[C@@H](CCCCNC(=O)CC[C@H](NC(=O)CCCCCCCCCCCCCCC(=O)O)C(=O)O)C(=O)N[C@@H](CCCCN)C(=O)N[C@H](C(=O)N[C@@H](CC(C)C)C(=O)N[C@@H](CC(C)C)C(=O)N[C@@H](CCC(=O)O)C(=O)N[C@@H](CCC(N)=O)C(=O)N[C@@H](CCC(=O)O)C(=O)N[C@@H](CCCCN)C(=O)N[C@@H](CCC(N)=O)C(=O)N[C@@H](CCCCN)C(=O)N[C@@H](CCCCN)C(=O)N[C@@H](CCC(N)=O)C(=O)N[C@@H](CCCNC(=N)N)C(=O)N[C@@H](CCC(=O)O)C(=O)N[C@@H](CCC(N)=O)C(=O)N[C@@H](C)C(=O)N[C@@H](CCC(=O)O)C(=O)N[C@H](C(=O)N[C@@H](CC(N)=O)C(=O)N[C@@H](CCC(=O)O)C(=O)N[C@@H](CCC(N)=O)C(=O)N[C@H](C(=O)N[C@@H](CC(C)C)C(=O)N[C@@H](C)C(=O)N[C@@H](CCC(N)=O)C(=O)N[C@H](C(N)=O)C(C)C)[C@@H](C)CC)[C@@H](C)O)[C@@H](C)CC)[C@@H](C)CC)C(C)C)C(C)C [compound 71] (H-[NMeI]VLSLD[dV]PIKLK([γGlu-C16 diacid])KILLEQEKQKKQREQAETNEQILAQV-NH2)
18	> 250	0.14	CC[C@H](C)[C@H](NC)C(=O)N[C@H](C(=O)N[C@@H](CC(C)C)C(=O)N[C@@H](CO)C(=O)N[C@@H](CC(C)C)C(=O)N[C@@H](CC(=O)O)C(=O)N[C@@H](C(=O)N1CCC[C@H]1C(=O)N[C@H](C(=O)N[C@@H](CCCCN)C(=O)N[C@@H](CC(C)C)C(=O)N[C@@H](CCCCNC(=O)CC[C@H](NC(=O)CCCCCCCCCCCCCCC(=O)O)C(=O)O)C(=O)N[C@@H](CCCCN)C(=O)N[C@H](C(=O)N[C@@H](CC(C)C)C(=O)N[C@@H](CC(C)C)C(=O)N[C@@H](CCC(=O)O)C(=O)N[C@@H](CCC(N)=O)C(=O)N[C@@H](CCC(=O)O)C(=O)N[C@@H](CCCCN)C(=O)N[C@@H](CCC(N)=O)C(=O)N[C@@H](CCCCN)C(=O)N[C@@H](CCCCN)C(=O)N[C@@H](CCC(N)=O)C(=O)N[C@@H](CCCNC(=N)N)C(=O)N[C@@H](CCC(=O)O)C(=O)N[C@@H](CCC(N)=O)C(=O)N[C@@H](C)C(=O)N[C@@H](CCC(=O)O)C(=O)N[C@H](C(=O)N[C@@H](CC(N)=O)C(=O)NC1(C(=O)N[C@@H](CCC(N)=O)C(=O)N[C@H](C(=O)N[C@@H](CC(C)C)C(=O)N[C@@H](C)C(=O)N[C@@H](CCC(N)=O)C(=O)N[C@H](C(N)=O)C(C)C)[C@@H](C)CC)CCNCC1)[C@@H](C)O)[C@@H](C)CC)[C@@H](C)CC)C(C)C)C(C)C [compound 72] (H-[NMeI]VLSLD[dV]PIKLK([γGlu-C16 diacid])KILLEQEKQKKQREQAETN[Api]QILAQV-NH2)
7	> 250	0.15	CC[C@H](C)[C@H](NC)C(=O)N[C@H](C(=O)N[C@@H](CC(C)C)C(=O)N[C@@H](CO)C(=O)N[C@@H](CC(C)C)C(=O)N[C@@H](CC(=O)O)C(=O)N[C@@H](C(=O)N1CCC[C@H]1C(=O)N[C@H](C(=O)N[C@@H](CCCCN)C(=O)N[C@@H](CC(C)C)C(=O)N[C@@H](CCCCNC(=O)CC[C@H](NC(=O)CCCCCCCCCCCCCCC(=O)O)C(=O)O)C(=O)N[C@@H](CCCCN)C(=O)N[C@H](C(=O)N[C@@H](CC(C)C)C(=O)N[C@@H](CC(C)C)C(=O)N[C@@H](CCC(=O)O)C(=O)N[C@@H](CCC(N)=O)C(=O)N[C@@H](CCC(=O)O)C(=O)N[C@@H](CCCCN)C(=O)N[C@@H](CCC(N)=O)C(=O)N[C@@H](CCCCN)C(=O)N[C@@H](C)C(=O)N[C@@H](CCC(N)=O)C(=O)N[C@@H](CCCNC(=N)N)C(=O)N[C@@H](CCC(=O)O)C(=O)N[C@@H](CCC(N)=O)C(=O)N[C@@H](C)C(=O)N[C@@H](CCC(=O)O)C(=O)N[C@H](C(=O)N[C@@H](CC(N)=O)C(=O)NC(C)(C)C(=O)N[C@@H](CCC(N)=O)C(=O)N[C@H](C(=O)N[C@@H](CC(C)C)C(=O)N[C@@H](C)C(=O)N[C@@H](CCC(N)=O)C(=O)N[C@H](C(N)=O)C(C)C)[C@@H](C)CC)[C@@H](C)O)[C@@H](C)CC)[C@@H](C)CC)C(C)C)C(C)C [compound 74] (H-[NMeI]VLSLD[dV]PIKLK([γGlu-C16 diacid])KILLEQEKQKAQREQAETN[Aib]QILAQV-NH2)
